Assay [1] relates to lipase. Type of assay: biochemical, Pseudomonas fragi 22.39B. The settings on record: for Effect of metal ions on the enzyme (in words): summary statement. The protocol:
Thus, the chemical and physical properties, by which the inventive novel lipase is characterized, are as described below. The activity of the enzyme has been determined by the PVA emulsion method proposed by Yamada, et al. and described in Journal of the Agricultural Chemical Society of Japan, volume 36, page 860 (1962) with some modifications if not mentioned otherwise, taking an amount of the enzyme liberating a micro- equivalent of a fatty acid for 1 minute as one unit (U) (see Japanese Patent Publication 56-28517).
The influence of metal ions on the enzymatic actvity was examined by keeping a 9:1 by volume mixture of a 5U/ml solution of the enzyme and a 10 mM solution of the metal ions at 25°C for 30 minutes followed by the determination of the residual activity of the enzyme in the solution. No calcium chloride was contained in the reaction mixture.

Assay [2] has as its system lipase. As to the kind of experiment: Substrate specificity: relative rate of decomposition of esters, oils and fats (shaking method). It is filed as biochemical, Pseudomonas fragi 22.39B. The settings on record: for Relative rate of decomposition, %: ester as the substrate, triolein as the reference (100), shaking method, pH 9.0, 37°C, 30 minutes; for Activity of the enzyme for the decomposition of the substrate (in words): summary statement. An excerpt: The enzyme is active for the decomposition of the substrate, such as various kinds of esters and naturally occurring oils and fats. Tables 1-1 and 1-2 given below give the relative rate of decomposition of esters (Table 1-1) and naturally occurring oils and fats (Table 1-2) in % taking triolein and olive oil, respectively, as the reference.
Different from the above mentioned standard procedure of the PVA emulsion method, the results tabulated in Tables 1-1 and 1-2 were obtained by the shaking method according to the conditions and procedures described below.
The solution described above was taken in an Erlenmeyer flask of 100 ml capacity and shaken for 30 minutes in a thermostat at 37°C at a rate of 90 rpm along an 8-shaped line. After completion of the above mentioned reaction time, 20 ml of a 1:1 mixture of acetone and ethyl alcohol were added to the flask and the resultant solution was titrated within a length of time with a 0.05N aqueous solution of sodium hydroxide using phenol phthalein as the indicator.

The test system of assay [3] is lipase. As to the kind of experiment: Influence of surface active agents on the enzymatic activity (residual activity). It is filed as biochemical, Pseudomonas fragi 22.39B. The settings on record: for Residual activity, %: 9:1 by volume mixture of 10 U/ml enzyme solution and 4% aqueous solution of surface active agent, 25°C, 30 minutes; for Effect of surface active agents on the enzyme (in words): summary statement. Here is the method:
Thus, the chemical and physical properties, by which the inventive novel lipase is characterized, are as described below.
Similarly, the influence of surface active agents on the enzymatic activity was examined by keeping a 9:1 by volume mixture of a 10 U/ml solution of the enzyme and a 4% aqueous solution of the surface active agent at 25°C for 30 minutes followed by the determination of the residual activity of the enzyme in the solution.

Assay [4] concerns lipase. The settings on record: Biochim. Biophys. Acta 488, 353-358 (1977); cited from earlier work.
Assay [5] has as its system lipase. The settings on record: J. Ferment. Technol. 49, 128 (1971); Japanese Patent Publication 50-25553; cited from earlier work.
In assay [6] the test system is lipase. The settings on record: J. Ferment. Technol. 49, 128 (1971); Japanese Patent Publication 50-25553; cited from earlier work. This is another data set of the same source.
Assay [7] deals with T1, lipase (Pseudomonas fragi, UniProt P08658).
T1 sequence (P08658 1-293): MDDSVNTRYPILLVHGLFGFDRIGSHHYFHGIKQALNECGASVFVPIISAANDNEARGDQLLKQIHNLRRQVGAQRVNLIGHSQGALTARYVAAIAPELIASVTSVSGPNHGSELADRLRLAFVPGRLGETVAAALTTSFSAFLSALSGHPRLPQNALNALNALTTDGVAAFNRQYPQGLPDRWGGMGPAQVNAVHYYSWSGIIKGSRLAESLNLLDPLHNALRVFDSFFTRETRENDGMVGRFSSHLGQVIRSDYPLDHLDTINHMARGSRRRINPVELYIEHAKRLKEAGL
The settings on record: J. Gen. Microbiol. 48, 317-328 (1967); cited from earlier work.

Assay [8] deals with lipase (Pseudomonas aeruginosa, UniProt P26876). The settings on record: Biochim. Biophys. Acta 206, 380-391 (1970); cited from earlier work.
Chain of lipase (Pseudomonas aeruginosa, UniProt P26876) (P26876 27-311): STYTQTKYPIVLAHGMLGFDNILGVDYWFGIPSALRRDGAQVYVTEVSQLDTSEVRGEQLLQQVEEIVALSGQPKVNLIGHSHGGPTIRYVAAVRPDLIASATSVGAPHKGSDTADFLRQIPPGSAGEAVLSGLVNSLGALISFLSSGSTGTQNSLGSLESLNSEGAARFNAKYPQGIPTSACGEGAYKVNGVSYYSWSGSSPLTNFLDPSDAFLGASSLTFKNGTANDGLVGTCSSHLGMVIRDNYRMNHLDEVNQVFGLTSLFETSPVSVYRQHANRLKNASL
For assay [9], the system named is lipase. The settings on record: Biochim. Biophys. Acta 488, 353-358 (1977); cited from earlier work. The source holds these as a separate data set.
The mark [10] stands for this setting: 9:1 by volume mixture of 5U/ml enzyme solution and 10 mM metal ion solution, 25°C, 30 minutes, no calcium chloride.

Entries after “also recorded” stand apart in the source; their conditions may differ. Like-named read-outs stand apart in the source and are kept apart here.

With `[Cl][Ag]` [AgCl], the “Residual activity, %” value in assay [1] (setting [10]) is 93.6%.

Consider `[Cl][Al]([Cl])[Cl]` [AlCl3], for which the “Residual activity, %” value in assay [1] (setting [10]) amounted to 93.6%.

For `[Ba+2].[Cl-].[Cl-]` [BaCl2], the “Residual activity, %” value in [1] (setting [10]) is given as 92.7%.

Consider `CCCCCCCC/C=C\CCCCCCCC(=O)OCCCC` [Butyl oleate], for which, in assay [2], the “Relative rate of decomposition, %” value was found to be 95% and the “Activity of the enzyme for the decomposition of the substrate (in words)” value (“Activity of the enzyme” below) is reported as “Active; also recorded: good activity”.

Turning to `[Ca+2].[Cl-].[Cl-]` [CaCl2], the “Residual activity, %” value in assay [1] (setting [10]) came to 105.5%.

In the case of `CCCCCCCCCCCCCCCC[N+](C)(C)C.[Br-]` [Cetyl trimethyl ammonium bromide], in [3], the “Residual activity, %” value was found to be 12% and the “Effect of surface active agents on the enzyme (in words)” value was “deactivated”.

As to `[Cl-].[Cl-].[Co+2]` [CoCl2], the “Residual activity, %” value in assay [1] (setting [10]) is recorded as 86.6%.

`[Cl][Cu][Cl]` [CuCl2]: in assay [1] (setting [10]), the “Residual activity, %” value is 90.8%.

Regarding `CCCCCCCCCCCC[N+](C)(C)C.[Cl-]` [Dodecyl trimethyl ammonium chloride], the “Residual activity, %” value in assay [3] came to 35%.

As to `CCCCCCCC/C=C\CCCCCCCC(=O)OCC` [Ethyl oleate], the “Relative rate of decomposition, %” value in assay [2] stood at 59%.

As to `[Cl][Fe][Cl]` [FeCl2, iron (II) chloride], in assay [1] (setting [10]), the “Residual activity, %” value is 36.7%. In assay [1], the “Effect of metal ions on the enzyme (in words)” value (shortened to “Effect of metal ions”) is listed as “Deactivated”.

With `[Cl][Fe]([Cl])[Cl]` [FeCl3, iron (III) chloride], the “Residual activity, %” value in assay [1] (setting [10]) is recorded as 33.0%. For the same molecule, the “Effect of metal ions” value in assay [1] is “Deactivated”. Further, the entries for the “Activation and deactivation (in words)” value in assay [4] and in [5] were “Almost no deactivation” and “Inhibited”, respectively.

As to `[Cl][Hg][Cl]` [HgCl2, mercury (II) chloride], the “Residual activity, %” value in [1] (setting [10]) came to 83.5%. Besides, the figures for the “Activation and deactivation (in words)” value in [4] and in assay [5] were “Almost no deactivation” and “Inhibited”, respectively.

Regarding `CCCC(=O)OC` [Methyl butyrate], the “Relative rate of decomposition, %” value in assay [2] is 23%. The “Substrate specificity (in words)” value in assay [6] was “little active”; in assay [7], “inactive”.

Regarding `CCCCCCCC/C=C\CCCCCCCC(=O)OC` [Methyl oleate], in [2], the “Relative rate of decomposition, %” value worked out at 87%. In addition, the “Activity of the enzyme” value in assay [2] (listed as methyl - oleate) was “good activity”; in assay [2] (listed as methyl oleate), “Active”. Further, the “Substrate specificity (in words)” value in assay [7] was “inactive”.

On to `[Cl-].[Cl-].[Mg+2]` [MgCl2], for which the “Residual activity, %” value in [1] (setting [10]) is 97.2%.

As to `[Cl][Mn][Cl]` [MnCl2], the “Residual activity, %” value in assay [1] (setting [10]) is 81.7%.

With `[Cl][Ni][Cl]` [NiCl2], the “Residual activity, %” value in assay [1] (setting [10]) was 98.9%.

Take `[Cl][Pb][Cl]` [PbCl2]: in assay [1] (setting [10]), the “Residual activity, %” value is recorded as 78.0%.

With `CCCCCCCC/C=C\CCCCCCCC(=O)OCCOCC(OCCO)C1OCC(OCCO)C1OCCO` (stereo not drawn) [Polyoxyethylene sorbitan monooleate], the “Relative rate of decomposition, %” value in assay [2] stood at 50%. Besides, the “Residual activity, %” value in assay [3] is 115%.

Consider `[Cl][Sn][Cl]` [SnCl2], for which the “Residual activity, %” value in assay [1] (setting [10]) was 79.8%.

Regarding `[Cl-].[Cl-].[Sr+2]` [SrCl2], the “Residual activity, %” value in assay [1] (setting [10]) is 92.7%.

Turning to `CC(=O)OCC(COC(C)=O)OC(C)=O` [Triacetin], in assay [2], the “Relative rate of decomposition, %” value was 108% and the “Activity of the enzyme” value is on record as “highly active”.

In the case of `CCCC(=O)OCC(COC(=O)CCC)OC(=O)CCC` [Tributyrin], the “Relative rate of decomposition, %” value in assay [2] stood at 243%. The “Activity of the enzyme” value in [2] is “highly active”. Moreover, the “Substrate specificity (in words)” value in assay [6], in assay [8] and in [7] was “Active” in each case.

With `[Cl-].[Cl-].[Zn+2]` [ZnCl2, zinc chloride], in assay [1] (setting [10]), the “Residual activity, %” value was 34.9%. Moreover, the “Effect of metal ions” value in assay [1] is listed as “Deactivated”; in [1] (listed as Zn^2+), “deactivated; also recorded: deactivating effect”.

In the case of `CCCCCCCCCCCC[N+](C)(C)C.[Br-]` [n-Dodecyl trimethyl ammonium bromide], the “Residual activity, %” value in assay [3] is 46%.

On to `CCCCCCCCCCCCCCCC(=O)OCC(COC(=O)CCCCCCCCCCCCCCC)OC(=O)CCCCCCCCCCCCCCC` [tri- palmitin], for which the “Substrate specificity (in words)” value in assay [9] is given as “Active”.

As for `CCCCCC(=O)OCC(COC(=O)CCCCC)OC(=O)CCCCC` [tricaproin], the “Substrate specificity (in words)” value in assay [9] is “Active”.

`CCCCCCCCCCCCCC(=O)OCC(COC(=O)CCCCCCCCCCCCC)OC(=O)CCCCCCCCCCCCC` [trimyristin]: the “Substrate specificity (in words)” value in assay [6] was “Active”.

With KCl, the “Residual activity, %” value in assay [1] (setting [10]) was found to be 98.0%.

As for LiCl, the “Residual activity, %” value in assay [1] (setting [10]) is on record as 97.5%.

Consider NaCl, for which, in assay [1] (1000 µM), the “Residual activity, %” value is 98.0%.

With Polyoxyethylene (10) octyl phenyl ether, in [3], the “Residual activity, %” value stood at 105% and the “Effect of surface active agents on the enzyme (in words)” value is given as “somewhat increased”.

Turning to Polyoxyethylene (10) oleyl ether, the “Residual activity, %” value in assay [3] is on record as 55%.

With “Sorbitan monolaurate [Sorbitan monolaurate (Span 20)]”, in assay [2], the “Relative rate of decomposition, %” value came out at 66%.

On to “Sorbitan monooleate [Sorbitan monooleate (Span 80)]”, for which, in assay [2], the “Relative rate of decomposition, %” value was 36%. Moreover, the “Residual activity, %” value in assay [3] turned out to be 56%.

In the case of copper sulfate, the “Activation and deactivation (in words)” value in assay [5] was “Inhibited”.

The values are drawn from patent EP0204284A2, “A novel lipase” (SAPPORO BREWERIES LIMITED, priority 1985, dated 1986).
